Results: ChEMBL document CHEMBL3044672, “N9- and N7-(Chloromethyl Phenymethyl)Chloropurine Derivatives from , '-Dichloroxylenes: Synthesis and Anticancer Activity” (2005)

Key:
Type in all cases: functional
HOP-92 = assay: Cytotoxicity against Homo sapiens (human) HOP92 cells after 48 hr by sulforhodamine B assay; details: HOP-92, 48 h
NCI-H226 = assay: Cytotoxicity against Homo sapiens (human) NCI-H226 cells after 48 hr by sulforhodamine B assay; details: NCI-H226, 48 h; for CC50: read-out: LC50 (the source's name)
UACC-62 = assay: Cytotoxicity against Homo sapiens (human) UACC62 cells after 48 hr by sulforhodamine B assay; details: UACC-62, 48 h
SNB-19 = assay: Cytotoxicity against Homo sapiens (human) SNB19 cells after 48 hr by sulforhodamine B assay; details: SNB-19, 48 h
A498 = assay: Cytotoxicity against Homo sapiens (human) A498 cells after 48 hr by sulforhodamine B assay; details: A498, 48 h
786-0 = assay: Cytotoxicity against Homo sapiens (human) 786-0 cells after 48 hr by sulforhodamine B assay; details: 786-0, 48 h
Hs-578T = assay: Cytotoxicity against Homo sapiens (human) Hs 578T cells after 48 hr by sulforhodamine B assay
TK-10 = assay: Cytotoxicity against Homo sapiens (human) TK10 cells after 48 hr by sulforhodamine B assay; details: TK-10, 48 h; for CC50: read-out: LC50 (the source's name)
NCI-H460 = assay: Cytotoxicity against Homo sapiens (human) NCI-H460 cells assessed as cell growth at 10^-4 M after 48 hr by Alamar blue assay; details: NCI-H460, 48 h, read-out: Activity
K562 = assay: Cytotoxicity against Homo sapiens (human) K562 cells after 48 hr by sulforhodamine B assay; details: K562, 48 h; for CC50: read-out: LC50 (the source's name)
MDA-MB-435 = assay: Cytotoxicity against Homo sapiens (human) MDA-MB-435 cells after 48 hr by sulforhodamine B assay; details: MDA-MB-435, 48 h
SF-268 = assay: Cytotoxicity against Homo sapiens (human) SF268 cells assessed as cell growth at 10^-4 M after 48 hr by […] assay; details: SF-268, 48 h, read-out: Activity
KM12 = assay: Cytotoxicity against Homo sapiens (human) KM12 cells after 48 hr by sulforhodamine B assay; details: KM12, 48 h; for CC50: read-out: LC50 (the source's name)
SW-620 = assay: Cytotoxicity against Homo sapiens (human) SW620 cells after 48 hr by sulforhodamine B assay; details: SW-620, 48 h; for CC50: read-out: LC50 (the source's name)
RPMI-8226 = assay: Cytotoxicity against Homo sapiens (human) RPMI8226 cells after 48 hr by sulforhodamine B assay; details: RPMI-8226, 48 h
UACC-257 = assay: Cytotoxicity against Homo sapiens (human) UACC257 cells after 48 hr by sulforhodamine B assay; details: UACC-257, 48 h
COLO 205 = assay: Cytotoxicity against Homo sapiens (human) COLO205 cells after 48 hr by sulforhodamine B assay; details: COLO 205, 48 h
NCI-H522 = assay: Cytotoxicity against Homo sapiens (human) NCI-H522 cells after 48 hr by sulforhodamine B assay; details: NCI-H522, 48 h; for CC50: read-out: LC50 (the source's name)
SN12C = assay: Cytotoxicity against Homo sapiens (human) SN12C cells after 48 hr by sulforhodamine B assay
A549 = assay: Cytotoxicity against Homo sapiens (human) A549 cells after 48 hr by sulforhodamine B assay; details: A549, 48 h
MDA-MB-231 = assay: Cytotoxicity against Homo sapiens (human) MDA-MB-231 cells after 48 hr by sulforhodamine B assay; details: MDA-MB-231, 48 h
SF-539 = assay: Cytotoxicity against Homo sapiens (human) SF539 cells after 48 hr by sulforhodamine B assay; details: SF-539, 48 h
OVCAR-4 = assay: Cytotoxicity against Homo sapiens (human) OVCAR4 cells after 48 hr by sulforhodamine B assay; details: OVCAR-4, 48 h
SNB-75 = assay: Cytotoxicity against Homo sapiens (human) SNB75 cells after 48 hr by sulforhodamine B assay; details: SNB-75, 48 h
ACHN = assay: Cytotoxicity against Homo sapiens (human) ACHN cells after 48 hr by sulforhodamine B assay
HCT-15 = assay: Cytotoxicity against Homo sapiens (human) HCT15 cells after 48 hr by sulforhodamine B assay; details: HCT-15, 48 h
HCT-116 = assay: Cytotoxicity against Homo sapiens (human) HCT116 cells after 48 hr by sulforhodamine B assay; details: HCT-116, 48 h
[1] = read-out: LC50 (the source's name)

For `ClCc1ccc(Cn2cnc3ncnc(Cl)c32)cc1`, the GI50 (HOP-92) was 1170 nM, the TGI (HOP-92) was 2510 nM and the CC50 (HOP-92; [1]) was 5.49 µM. The GI50 (NCI-H226) was 3010 nM, the TGI (NCI-H226) was 12 µM and the CC50 (NCI-H226) was 37.1 µM. It also gave a GI50 (UACC-62) of 2510 nM, an LC50 (concentration causing 50% net cell kill) (UACC-62) of 34.7 µM and a TGI (UACC-62) of 12 µM. It also gave a GI50 (SNB-19) of 1690 nM, an LC50 (SNB-19) of 5.75 µM and a TGI (SNB-19) of 3.16 µM. It also gave a GI50 (A498) of 1810 nM, an LC50 (lethal concentration, 50% cell kill) (A498) of 6.3 µM and a TGI (A498) of 3.38 µM. It also gave a GI50 (786-0) of 1690 nM, an LC50 (786-0) of 5.49 µM and a TGI (786-0) of 3.01 µM. For the same compound, the GI50 (Hs-578T) was 1730 nM, the LC50 (Hs-578T) was greater than 100 µM and the TGI (Hs-578T) was 4.26 µM. The GI50 (TK-10) was 1470 nM, the TGI (TK-10) was 2950 nM and the CC50 (TK-10) was 5.75 µM. The growth at 100 µM (NCI-H460) was 0%, the GI50 (K562) was 3010 nM and the TGI (K562) was greater than 100000 nM. For the same compound, the CC50 (K562) was greater than 100000 nM, the GI50 (MDA-MB-435) was 5.88 µM and the LC50 (MDA-MB-435) was 46.8 µM. It also gave a TGI (MDA-MB-435) of 19.1 µM, a growth at 100 µM (SF-268) of 1% and a GI50 (KM12) of 1650 nM. For the same compound, the TGI (KM12) was 3.38 µM, the CC50 (KM12) was 7.07 µM and the GI50 (SW-620) was 2570 nM. The TGI (SW-620) was 7.24 µM, the CC50 (SW-620) was 32.4 µM and the GI50 (RPMI-8226) was 1280 nM. For the same compound, the TGI (RPMI-8226) was 2690 nM, the CC50 (RPMI-8226; [1]) was 5.62 µM and the GI50 (UACC-257) was 1580 nM. It also gave an LC50 (concentration killing 50% of cells) (UACC-257) of 7.76 µM, a TGI (UACC-257) of 3.46 µM and a GI50 (COLO 205) of 1900 nM. It also gave a TGI (COLO 205) of 3.8 µM, a CC50 (COLO 205; [1]) of 7.41 µM and a GI50 (NCI-H522) of 4260 nM. The TGI (NCI-H522) was greater than 100000 nM, the CC50 (NCI-H522) was greater than 100 µM and the GI50 (SN12C) was 3630 nM. It also gave an LC50 (50% lethal concentration) (SN12C) of 40.7 µM, a TGI (SN12C) of 14.8 µM and a GI50 (A549) of 1810 nM. It also gave a TGI (A549) of 4.16 µM, a CC50 (A549; [1]) of 9.33 µM and a GI50 (MDA-MB-231) of 1770 nM. It also gave an LC50 (MDA-MB-231) of 6.3 µM, a TGI (MDA-MB-231) of 3380 nM and a GI50 (SF-539) of 2080 nM. For the same compound, the LC50 (concentration killing 50% of cells) (SF-539) was 6.76 µM and the TGI (SF-539) was 3.71 µM.
`ClCc1ccccc1Cn1cnc2c(Cl)nc(Cl)nc21` showed a GI50 (HOP-92) of 350 nM, a TGI (HOP-92) of 970 nM and a GI50 (NCI-H226) of 1730 nM. The TGI (NCI-H226) was 3.38 µM, the CC50 (NCI-H226) was 6.76 µM and the GI50 (UACC-62) was 1310 nM. It also gave an LC50 (concentration causing 50% net cell kill) (UACC-62) of 5.24 µM, a TGI (UACC-62) of 2.63 µM and a GI50 (A498) of 2400 nM. For the same compound, the LC50 (lethal concentration, 50% cell kill) (A498) was 9.55 µM, the TGI (A498) was 4.78 µM and the GI50 (786-0) was 1860 nM. The LC50 (786-0) was 6.45 µM, the TGI (786-0) was 3.47 µM and the GI50 (Hs-578T) was 1170 nM. The LC50 (Hs-578T) was greater than 100 µM, the TGI (Hs-578T) was 3.54 µM and the GI50 (TK-10) was 1450 nM. For the same compound, the TGI (TK-10) was 2880 nM, the CC50 (TK-10) was 5.62 µM and the growth at 100 µM (NCI-H460) was 0%. The GI50 (K562) was 150 nM, the TGI (K562) was 370 nM and the CC50 (K562) was 910 nM. For the same compound, the GI50 (MDA-MB-435) was 1.62 µM, the LC50 (MDA-MB-435) was 6.45 µM and the TGI (MDA-MB-435) was 3.23 µM. For the same compound, the growth at 100 µM (SF-268) was 0%, the GI50 (KM12) was 1470 nM and the TGI (KM12) was 2.95 µM. The CC50 (KM12) was 5.88 µM, the GI50 (OVCAR-4) was 1770 nM and the TGI (OVCAR-4) was 3.63 µM. It also gave a GI50 (SW-620) of 150 nM, a TGI (SW-620) of 0.35 µM and a CC50 (SW-620) of 0.81 µM. For the same compound, the GI50 (RPMI-8226) was 380 nM, the TGI (RPMI-8226) was 1540 nM and the GI50 (SNB-75) was 1540 nM. For the same compound, the TGI (SNB-75) was 3.54 µM, the GI50 (ACHN) was 470 nM and the TGI (ACHN) was 1620 nM. It also gave a CC50 (ACHN; [1]) of 4.16 µM, a GI50 (UACC-257) of 1820 nM and an LC50 (concentration killing 50% of cells) (UACC-257) of 8.51 µM. For the same compound, the TGI (UACC-257) was 3.89 µM, the GI50 (HCT-15) was 330 nM and the TGI (HCT-15) was 1200 nM. It also gave a CC50 (HCT-15; [1]) of 4.78 µM, a GI50 (NCI-H522) of 580 nM and a TGI (NCI-H522) of 1990 nM. It also gave a CC50 (NCI-H522) of 6.76 µM, a GI50 (SN12C) of 720 nM and an LC50 (50% lethal concentration) (SN12C) of 4.67 µM. It also gave a TGI (SN12C) of 2.04 µM, a GI50 (HCT-116) of 190 nM and a TGI (HCT-116) of 380 nM. For the same compound, the CC50 (HCT-116; [1]) was 750 nM, the GI50 (A549) was 2230 nM and the TGI (A549) was 4.67 µM. For the same compound, the GI50 (MDA-MB-231) was 330 nM, the LC50 (MDA-MB-231) was 3.98 µM and the TGI (MDA-MB-231) was 1380 nM. It also gave a GI50 (SF-539) of 1470 nM, an LC50 (concentration killing 50% of cells) (SF-539) of 5.62 µM and a TGI (SF-539) of 2.88 µM.
